Patent US12570695B2, “Bicyclic peptide ligands specific for EphA2” (priority 2019, dated 2026)
Starred links: 1 amine or outer side, 2 acyl side, 3 side chain; linkers in the order of their positions; H or OH if unused. Positions of bridges follow the written chain, without caps; N, C: chain ends. Non-standard residues stand in square brackets, D forms with d. Residues, ends and D or L forms follow the SMILES beside them. TATA = O=C(CC[*:1])N1CN(C(=O)CC[*:2])CN(C(=O)CC[*:3])C1; Ala(4-thiazolyl) = N[C@@H](Cc1cscn1)C(=O)O; Hyp = O=C(O)[C@@H]1C[C@@H](O)CN1; hArg = N=C(N)NCCCC[C@H](N)C(=O)O; 2Thi = N[C@@H](Cc1cccs1)C(=O)O; 3Thi = N[C@@H](Cc1ccsc1)C(=O)O; dNle = CCCC[C@@H](N)C(=O)O; Nle = CCCC[C@H](N)C(=O)O

Each molecule was assayed against human EphA2 (Homo sapiens, UniProt P29317) (assay: biochemical).
Chain of human EphA2 (P29317 24-976): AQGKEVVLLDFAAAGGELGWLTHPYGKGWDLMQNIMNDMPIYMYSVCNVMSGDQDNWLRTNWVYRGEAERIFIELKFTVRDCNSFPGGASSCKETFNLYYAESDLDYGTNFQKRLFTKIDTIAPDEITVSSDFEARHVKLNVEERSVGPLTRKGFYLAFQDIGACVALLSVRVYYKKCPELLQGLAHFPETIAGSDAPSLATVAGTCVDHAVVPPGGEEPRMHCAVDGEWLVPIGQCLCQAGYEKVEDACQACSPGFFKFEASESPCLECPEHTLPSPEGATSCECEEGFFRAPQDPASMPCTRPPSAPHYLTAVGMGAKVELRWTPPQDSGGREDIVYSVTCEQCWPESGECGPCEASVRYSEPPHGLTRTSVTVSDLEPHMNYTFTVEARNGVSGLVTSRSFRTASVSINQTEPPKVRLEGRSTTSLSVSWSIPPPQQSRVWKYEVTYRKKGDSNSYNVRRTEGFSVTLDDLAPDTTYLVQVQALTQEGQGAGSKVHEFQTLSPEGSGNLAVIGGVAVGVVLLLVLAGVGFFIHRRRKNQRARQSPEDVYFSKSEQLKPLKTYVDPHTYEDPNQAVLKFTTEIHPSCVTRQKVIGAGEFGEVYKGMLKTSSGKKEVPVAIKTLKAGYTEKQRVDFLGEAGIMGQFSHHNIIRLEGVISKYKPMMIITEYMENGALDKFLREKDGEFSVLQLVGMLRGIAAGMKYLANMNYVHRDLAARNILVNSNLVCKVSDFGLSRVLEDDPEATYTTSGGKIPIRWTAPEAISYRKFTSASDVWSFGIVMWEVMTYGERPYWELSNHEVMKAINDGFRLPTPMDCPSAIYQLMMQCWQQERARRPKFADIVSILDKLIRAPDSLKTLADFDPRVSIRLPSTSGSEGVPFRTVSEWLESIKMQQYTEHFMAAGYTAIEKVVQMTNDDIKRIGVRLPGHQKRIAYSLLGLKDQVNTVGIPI
Description: Peptides without a fluorescent tag were tested in competition with a peptide with a fluorescent tag and a known Kd.
Peptides were diluted to an appropriate concentration in assay buffer as described in the direct binding assay with a maximum of 5% DMSO, then serially diluted 1 in 2. […] Measurements were conducted, however the gain was determined prior to the first measurement. Data analysis was in Systat Sigmaplot version 12.0 where the mP values were fit to a user defined cubic equation to generate a Ki value:
“Lig”, “KLig” and “Prot” were all defined values relating to: fluorescent peptide concentration, the Kd of the fluorescent peptide and EphA2 concentration respectively.

Compound	Ki [nM]
CCCC[C@H]1NC(=O)[C@@H]2CCCN2C(=O)[C@H](Cc2c[nH]cn2)NC(=O)[C@H](CC(C)C)NC(=O)[C@@H]2CSCCC(=O)N3CN(CN(C3)C(=O)CCSC[C@H](NC(=O)[C@H](CC(=O)O)NC(=O)[C@H](CCCCNC(=N)N)NC(=O)[C@H](C)N)C(=O)N3C[C@H](O)C[C@H]3C(=O)N[C@@H](CC(C)C)C(=O)N[C@@H](C(C)C)C(=O)N[C@@H](CC(N)=O)C(=O)N3CCC[C@H]3C(=O)N[C@@H](CC(C)C)C(=O)N2)C(=O)CCSC[C@@H](C(N)=O)NC(=O)[C@H](CCCCNC(=N)N)NC(=O)[C@H](Cc2c[nH]c3ccccc23)NC1=O [BCY13134, A-[HArg]-D-Ci[HyP]LVNPLCiiLHP[dNle]W[HArg]Ciii] (H-A[hArg]DC[Hyp]LVNPLCLHP[dNle]W[hArg]C-NH2; linker 4-11-18 via TATA; N-terminus and C-terminus assumed)	1.16
CCCC[C@@H]1NC(=O)[C@H](CC(C)C)NC(=O)[C@@H]2CSCCC(=O)N3CN(CN(C3)C(=O)CCSC[C@H](NC(=O)[C@H](CC(=O)O)NC(=O)[C@H](CCCCNC(=N)N)NC(=O)[C@H](C)N)C(=O)N3C[C@H](O)C[C@H]3C(=O)N[C@@H](CC(C)C)C(=O)N[C@@H](C(C)C)C(=O)N[C@@H](CC(N)=O)C(=O)N3CCC[C@H]3C(=O)N[C@@H](CC(C)C)C(=O)N2)C(=O)CCSC[C@@H](C(N)=O)NC(=O)[C@H](CCCCNC(=N)N)NC(=O)[C@H](Cc2c[nH]c3ccccc23)NC(=O)[C@@H](CC(=O)O)NC(=O)[C@@H]2CCCN2C1=O [BCY13135, A-[HArg]-D-Ci[HyP]LVNPLCiiL[Nle]P[dD]W[HArg]Ciii] (H-A[hArg]DC[Hyp]LVNPLCL[Nle]P[dD]W[hArg]C-NH2; linker 4-11-18 via TATA; N-terminus and C-terminus assumed)	0.894
CC(C)C[C@@H]1NC(=O)[C@@H]2CSCCC(=O)N3CN(CN(C3)C(=O)CCSC[C@H](NC(=O)[C@H](CC(=O)O)NC(=O)[C@H](CCCCNC(=N)N)NC(=O)[C@H](C)N)C(=O)N3C[C@H](O)C[C@H]3C(=O)N[C@@H](CC(C)C)C(=O)N[C@@H](C(C)C)C(=O)N[C@@H](CC(N)=O)C(=O)N3CCC[C@H]3C(=O)N[C@@H](CC(C)C)C(=O)N2)C(=O)CCSC[C@@H](C(N)=O)NC(=O)[C@H](CCCCNC(=N)N)NC(=O)[C@H](Cc2c[nH]c3ccccc23)NC(=O)[C@@H](CC(=O)O)NC(=O)[C@@H]2CCCN2C(=O)[C@H](Cc2cscn2)NC1=O [BCY13919, A[HArg]DCi[HyP]LVNPLCiiL[4ThiAz]P[dD]W[HArg]Ciii] (H-A[hArg]DC[Hyp]LVNPLCL[Ala(4-thiazolyl)]P[dD]W[hArg]C-NH2; linker 4-11-18 via TATA; N-terminus and C-terminus assumed)	2.1
CC(C)C[C@@H]1NC(=O)[C@@H]2CSCCC(=O)N3CN(CN(C3)C(=O)CCSC[C@H](NC(=O)[C@H](CC(=O)O)NC(=O)[C@H](CCCCNC(=N)N)NC(=O)[C@H](C)N)C(=O)N3C[C@H](O)C[C@H]3C(=O)N[C@@H](CC(C)C)C(=O)N[C@@H](C(C)C)C(=O)N[C@@H](CC(N)=O)C(=O)N3CCC[C@H]3C(=O)N[C@@H](CC(C)C)C(=O)N2)C(=O)CCSC[C@@H](C(N)=O)NC(=O)[C@H](CCCCNC(=N)N)NC(=O)[C@H](Cc2c[nH]c3ccccc23)NC(=O)[C@@H](CC(=O)O)NC(=O)[C@@H]2CCCN2C(=O)[C@H](Cc2ccccc2)NC1=O [BCY13920, A[HArg]DCi[HyP]LVNPLCiiLFP[dD]W[HArg]Ciii] (H-A[hArg]DC[Hyp]LVNPLCLFP[dD]W[hArg]C-NH2; linker 4-11-18 via TATA; N-terminus and C-terminus assumed)	0.641
CC(C)C[C@@H]1NC(=O)[C@@H]2CSCCC(=O)N3CN(CN(C3)C(=O)CCSC[C@H](NC(=O)[C@H](CC(=O)O)NC(=O)[C@H](CCCCNC(=N)N)NC(=O)[C@H](C)N)C(=O)N3C[C@H](O)C[C@H]3C(=O)N[C@@H](CC(C)C)C(=O)N[C@@H](C(C)C)C(=O)N[C@@H](CC(N)=O)C(=O)N3CCC[C@H]3C(=O)N[C@@H](CC(C)C)C(=O)N2)C(=O)CCSC[C@@H](C(N)=O)NC(=O)[C@H](CCCCNC(=N)N)NC(=O)[C@H](Cc2c[nH]c3ccccc23)NC(=O)[C@@H](CC(=O)O)NC(=O)[C@@H]2CCCN2C(=O)[C@H](Cc2cccs2)NC1=O [BCY13922, A[HArg]DCi[HyP]LVNPLCiiL[Thi]P[dD]W[HArg]Ciii] (H-A[hArg]DC[Hyp]LVNPLCL[2Thi]P[dD]W[hArg]C-NH2; linker 4-11-18 via TATA; N-terminus and C-terminus assumed)	1.14
CC(C)C[C@@H]1NC(=O)[C@@H]2CSCCC(=O)N3CN(CN(C3)C(=O)CCSC[C@H](NC(=O)[C@H](CC(=O)O)NC(=O)[C@H](CCCCNC(=N)N)NC(=O)[C@H](C)N)C(=O)N3C[C@H](O)C[C@H]3C(=O)N[C@@H](CC(C)C)C(=O)N[C@@H](C(C)C)C(=O)N[C@@H](CC(N)=O)C(=O)N3CCC[C@H]3C(=O)N[C@@H](CC(C)C)C(=O)N2)C(=O)CCSC[C@@H](C(N)=O)NC(=O)[C@H](CCCCNC(=N)N)NC(=O)[C@H](Cc2c[nH]c3ccccc23)NC(=O)[C@@H](CC(=O)O)NC(=O)[C@@H]2CCCN2C(=O)[C@H](Cc2ccsc2)NC1=O [BCY13923, A[HArg]DCi[HyP]LVNPLCiiL[3Thi]P[dD]W[HArg]Ciii] (H-A[hArg]DC[Hyp]LVNPLCL[3Thi]P[dD]W[hArg]C-NH2; linker 4-11-18 via TATA; N-terminus and C-terminus assumed)	1.32
CC(C)C[C@@H]1NC(=O)[C@@H]2CSCCC(=O)N3CN(CN(C3)C(=O)CCSC[C@H](NC(=O)[C@H](CC(=O)O)NC(=O)[C@H](CCCCNC(=N)N)NC(=O)[C@H](C)N)C(=O)N3C[C@H](O)C[C@H]3C(=O)N[C@@H](CC(C)C)C(=O)N[C@@H](C(C)C)C(=O)N[C@@H](CC(N)=O)C(=O)N3CCC[C@H]3C(=O)N[C@@H](CC(C)C)C(=O)N2)C(=O)CCSC[C@@H](C(N)=O)NC(=O)[C@H](CCCCNC(=N)N)NC(=O)[C@H](Cc2c[nH]c3ccccc23)NC(=O)[C@@H](CC(=O)O)NC(=O)[C@@H]2CCCN2C(=O)[C@H](CC(N)=O)NC1=O [BCY14047, A[HArg]DCi[HyP]LVNPLCiiLNP[dD]W[HArg]Ciii] (H-A[hArg]DC[Hyp]LVNPLCLNP[dD]W[hArg]C-NH2; linker 4-11-18 via TATA; N-terminus and C-terminus assumed)	3.88
CC(C)C[C@@H]1NC(=O)[C@@H]2CSCCC(=O)N3CN(CN(C3)C(=O)CCSC[C@H](NC(=O)[C@H](CC(=O)O)NC(=O)[C@H](CCCCNC(=N)N)NC(=O)[C@H](C)N)C(=O)N3C[C@H](O)C[C@H]3C(=O)N[C@@H](CC(C)C)C(=O)N[C@@H](C(C)C)C(=O)N[C@@H](CC(N)=O)C(=O)N3CCC[C@H]3C(=O)N[C@@H](CC(C)C)C(=O)N2)C(=O)CCSC[C@@H](C(N)=O)NC(=O)[C@H](CCCCNC(=N)N)NC(=O)[C@H](Cc2c[nH]c3ccccc23)NC(=O)[C@@H](CC(=O)O)NC(=O)[C@@H]2CCCN2C(=O)[C@H](CCC(N)=O)NC1=O [BCY14048, A[HArg]DCi[HyP]LVNPLCiiLQP[dD]W[HArg]Ciii] (H-A[hArg]DC[Hyp]LVNPLCLQP[dD]W[hArg]C-NH2; linker 4-11-18 via TATA; N-terminus and C-terminus assumed)	4.1
